Experimental data published in patent US20130156819A1, “ISOLATION OF MESENCHYMAL STEM CELLS” (Baden-Württemberg Stiftung gGmbH, priority 2010, published 2013).
Square brackets hold non-standard residues; d marks the D form. Ends that are not written are not given here. Orn = NCCC[C@H](N)C(=O)O; DOA = not defined here; Doa = not defined here

Columns and labels:
MSCs = experiment: Adhesion of MSCs to BSA-coupled peptide microarrays (MSA technology); assay type: cell-based, human; settings: peptide coupled to bovine serum albumin, incubation two hours, FIG. 2
Method: (§1) The adhesion of cells to peptides was also measured using the MSA™ technology (see Kuschel et al., 2006) as above in example 1. Instead of the extracellular matrix proteins, however, peptides coupled to bovine serum albumin were printed in the form of microarrays (8×8 microspots) onto the nitrocellulose layer, and then the remaining surface was sealed. For incubation with cells, small silicone chambers were placed on the coated slides, and incubated with MSCs or fibroblasts. After incubation for two hours, the non-adherent cells were washed away.
(§2) Adherent cells were made visible on the white nitrocellulose film by staining with Coomassie Blue and were evaluated in a motorized photomicroscope: the number of blue cells or the color intensity per spot is measured and transferred to tables for evaluation.
(§3) Evaluation of these arrays using the semi-automatic photomicroscope gave the relative binding strength on PLL (standardized to 100%, positive control) and BSA (standardized to 0%, negative control) for the peptides tested in each case.

fibroblasts = experiment: Adhesion of fibroblasts to BSA-coupled peptide microarrays (MSA technology); assay type: cell-based, human; settings: peptide coupled to bovine serum albumin, incubation two hours, FIG. 3
Method: as §1, §2, §3

[1] = system: human mesenchymal stem cells (MSC); experiment: Adherence of MSCs on immobilized matrix proteins (Multiple Substrate Array chip); assay type: cell-based; settings: immobilized protein on MSA chip, 20 000 cells/test chamber, FIG. 1
Method: The adherence of human mesenchymal stem cells (MSC, samples 5 and 6 in FIG. 1) and human fibroblasts (samples 1 to 4 in FIG. 1) on matrix proteins was investigated in a comparative test. The investigation was carried out using a chip (Multiple Substrate Array (MSA®)), on which the proteins were immobilized. The procedure used as such was as described in Kuschel et al., “Cell adhesion profiling using extracellular matrix protein microarrays”, Biotechniques 40: 523-531 (2006).
MSCs were enriched from bone marrow by density gradient centrifugation, cultivated as an adherent population in MSC-expansion medium, and harvested. The differentiation potential was tested on an aliquot and adipogenic, chondrogenic and osteogenic differentiation was confirmed. Therefore the cells fulfill the physiological requirements for MSCs (M. Dominici et al. 2006, Cytotherapy, 8: 315 ff). […]
Fibroblasts were isolated from the synovial membrane and expanded as described (Aicher et al. 1994 J. Immunol. 152: 5940 ff). The cells were harvested, washed, counted and in each case 20 000/test chamber were investigated using MSA™ chip technology for adherence to proteins. […] Cells adhering to the proteins were fixed chemically and their nuclei were marked with dye, for quantitation of the number of adherent cells per microspot of protein. […]

KRSR-DOA-A-OH (KRSR[DOA]A-OH; reading uncertain; also: printed as KRSR-DOA-A-OH; listed as Homo sapiens) [No. 37b]
adhesion of MSCs to the peptide (MSCs): make the adhesion of MSCs possible
adhesion of fibroblasts to the peptide (fibroblasts): not that of fibroblasts

KREDVY-OH (listed as Homo sapiens) [No. 21]
adhesion of MSCs to the peptide (MSCs): make the adhesion of MSCs possible
adhesion of fibroblasts to the peptide (fibroblasts): not that of fibroblasts

GRGDSO-OH (GRGDS[Orn]-OH; N-terminus assumed; SMILES N=C(N)NCCC[C@H](NC(=O)CN)C(=O)NCC(=O)N[C@@H](CC(=O)O)C(=O)N[C@@H](CO)C(=O)N[C@@H](CCCN)C(=O)O; listed as Homo sapiens) [No. 11]
adhesion of MSCs to the peptide (MSCs): make the adhesion of MSCs possible
adhesion of fibroblasts to the peptide (fibroblasts): not that of fibroblasts

LAIKNDNLVYVY-OH (listed as Homo sapiens) [No. 15]
adhesion of MSCs to the peptide (MSCs): make the adhesion of MSCs possible
adhesion of fibroblasts to the peptide (fibroblasts): not that of fibroblasts

DVISLYNFKHIY-OH (listed as Homo sapiens) [No. 16]
adhesion of MSCs to the peptide (MSCs): make the adhesion of MSCs possible
adhesion of fibroblasts to the peptide (fibroblasts): not that of fibroblasts

EILDV-OH (listed as Homo sapiens) [No. 22]
adhesion of MSCs to the peptide (MSCs): make the adhesion of MSCs possible
adhesion of fibroblasts to the peptide (fibroblasts): not that of fibroblasts

LRE-OH (Leu-Arg-Glu-OH; listed as Homo sapiens) [No. 9]
adhesion of MSCs to the peptide (MSCs): make the adhesion of MSCs possible
adhesion of fibroblasts to the peptide (fibroblasts): not that of fibroblasts

tenascin-C: oligomeric glycoprotein of the extracellular matrix, immobilized on the chip
binding of the MSCs to the protein compared with binding of fibroblasts [1]: firmer

EILDV-COOH (EILDV-OH; listed as Homo sapiens) [No. 22-COOH]
adhesion of MSCs to the peptide (MSCs): make the adhesion of MSCs possible
adhesion of fibroblasts to the peptide (fibroblasts): not that of fibroblasts

GF-Orn-GER-OH (GF[Orn]GER-OH; N-terminus assumed; SMILES N=C(N)NCCC[C@H](NC(=O)[C@H](CCC(=O)O)NC(=O)CNC(=O)[C@H](CCCN)NC(=O)[C@H](Cc1ccccc1)NC(=O)CN)C(=O)O) [No. 1]
adhesion of MSCs to the peptide (MSCs): make the adhesion of MSCs possible
adhesion of fibroblasts to the peptide (fibroblasts): not that of fibroblasts

YIIR-OH (listed as Homo sapiens) [No. 34]
adhesion of MSCs to the peptide (MSCs): make the adhesion of MSCs possible
adhesion of fibroblasts to the peptide (fibroblasts): not that of fibroblasts

LRE-Doa-A-OH (LRE[Doa]A-OH; reading uncertain; also: printed as LRE-Doa-A-OH; listed as Homo sapiens) [No. 9-COOH]
adhesion of MSCs to the peptide (MSCs): make the adhesion of MSCs possible
adhesion of fibroblasts to the peptide (fibroblasts): not that of fibroblasts

YIIR-DOA-A-OH (YIIR[DOA]A-OH; reading uncertain; also: printed as YIIR-DOA-A-OH; listed as Homo sapiens) [No. 34-COOH]
adhesion of MSCs to the peptide (MSCs): make the adhesion of MSCs possible
adhesion of fibroblasts to the peptide (fibroblasts): not that of fibroblasts

WTPPRAQITGYRLTVGLTRR-OH (listed as Homo sapiens) [No. 30]
adhesion of MSCs to the peptide (MSCs): make the adhesion of MSCs possible
adhesion of fibroblasts to the peptide (fibroblasts): not that of fibroblasts

GEFYFDLRLKGDK-OH (listed as Homo sapiens) [No. 5]
adhesion of MSCs to the peptide (MSCs): make the adhesion of MSCs possible
adhesion of fibroblasts to the peptide (fibroblasts): not that of fibroblasts

KREDVY-COOH (KREDVY-OH; listed as Homo sapiens) [No. 21-COOH]
adhesion of MSCs to the peptide (MSCs): make the adhesion of MSCs possible
adhesion of fibroblasts to the peptide (fibroblasts): not that of fibroblasts

DRVPHSRNSIT-OH (listed as Homo sapiens) [No. 20]
adhesion of MSCs to the peptide (MSCs): make the adhesion of MSCs possible
adhesion of fibroblasts to the peptide (fibroblasts): not that of fibroblasts
